Data: patent publication US10464901B2, “Composition including benzene diamine derivative for preventing or treating degenerative brain diseases” (UNIST(ULSAN NATIONAL INSTITUTE OF SCIENCE AND TECHNOLOGY), priority 2017, dated 2019)

Columns and labels:
[1] = Antioxidant effect: free organic radical-scavenging activity (ABTS) using cell lysate; type: biochemical; conditions: Table 1 summary of Example 3; symbols not defined
Description: It was examined whether the benzene diamine derivatives of the present disclosure have an antioxidant effect. It is known that reactive oxygen species induces oxidative stress in neuronal cells to cause neuronal cell death and causes protein misfolding to induce formation of Aβ aggregates. Therefore, compounds having antioxidant effects may be candidates for preventing or treating dementia.
Free organic radical-scavenging activity of the compound was determined according to a protocol of Cayman Chemical Company (Ann Arbor, Mich., USA) with slight modifications. For antioxidant analysis using a cell lysate, cells were seeded in a 6-well plate, and cultured until they reached 80-90% confluence. A cell lysate was prepared according to a known method, washed with a cold phosphate buffer solution (PBS; pH 7.4, GIBCO), and then harvested. Cell pellet was produced by centrifugation (2,000 g, 4° C., 10 min). This pellet was sonicated (5 sec pulse, 20 sec interval, three times) in 2 ml of cold assay buffer S13 (5 mM potassium phosphate, pH 7.4; 0.9% NaCl; 0.1% glucose) on ice. A cell lysate was centrifuged at 4° C. for 10 minutes at 5,000 g. A supernatant was removed, and left on ice until use. To the cell lysate supernatant (10 μl), the compound, metmyoglobin, ABTS (2,2′-azino-bis-3-ethylbenzothiazoline-6-sulfonic acid), and hydrogen peroxide were sequentially added. The mixture was incubated on a shaker at room temperature for 5 minutes, and absorbance at 750 nm was measured. The compound at a final concentration of 45, 90, 135, 180, 225, or 330 μM and Trolox (6-hydroxy-2,5,7,8-tetramethyl-chroman-2-carboxylic acid, dissolved in EtOH) were used. Antioxidant activity was calculated according to the measured absorbance [% inhibition=100×(A0−A)/A0, A0 represents absorbance of the supernant of the cell lysate]. Each measurement was repeated in triplicate.

[2] = tested on: human neuroblastoma cell line SK-N-BE(2)-M17 (M17); assay: Cytotoxicity-inhibitory effect, MTT cell viability with Aβ with or without metals; type: cell-based; conditions: M17 cells, irrespective of Aβ isoforms and metals, FIG. 4
Description: It was examined whether the benzene diamine derivatives of the present disclosure have cytotoxicity-inhibitory effect. Aβ aggregation and reactive oxygen species may cause cytotoxicity in neuronal cells, resulting in neuronal cell death.
In detail, human neuroblastoma cell line SK-N-BE(2)-M17 (M17) (ATCC, Manassa, Va., USA) was cultured in a 1:1 minimum essential medium (MEM; GIBCO, Grand Island, N.Y., USA), Ham's F12K Kaighn's Modification Media (F12K; GIBCO) supplemented with 10% (v/v) fetal bovine serum (FBS; Atlanta Biologicals, Flowery Branch, Ga., USA), 100 U/mL penicillin (GIBCO), and […] streptomycin (GIBCO). M17 cells were seeded in a 96-well plate (150,000 in 100 μl per well), and treated with various concentrations of the compound (0-50 μM, 1% v/v DMSO) in the presence or absence of CuCl2 or ZnCl2 (a metal/ligand ratio of 1:1 or 1:2), and in the presence or absence of Aβ 40 (Aβ:metal:compound=10:10:20 μM). After incubation at 37° C. for 24 hours, 25 μl of MTT (3-(4,5-dimethylthiazol-2-yl)-2,5-diphenyltetrazolium bromide) (5 mg/mL in PBS, pH 7.4) (GIBCO) was added to each well, and each plate was incubated at 37° C. for 4 hours. […] Absorbance at 600 nm was measured by using a microplate reader.

Aβ40 and Aβ42 = assay: Aβ aggregation inhibition in the presence or absence of metals, overall statements (FIG. 1); type: biochemical; conditions: two kinds of Aβ (Aβ40, Aβ42)
Text: (§1) It was examined whether the benzene diamine derivatives of the present disclosure have inhibitory effects on Aβ aggregation. Aβ has two isoforms, and therefore, effects on Aβ40 and Aβ42 were examined, respectively. When metals are involved in protein folding, the probability of abnormal folding is high. In this case, the probability of Aβ aggregate formation is further increased.
(§2) In order to perform molecular analysis of Aβ aggregation-inhibitory effects of the benzene diamine derivatives of the present disclosure, gel electrophoresis and Western blotting were performed by using anti-Aβ antibody (6E10). As a control group, compound 1
(§3) In detail, each sample (10 μl) was separated on a 10-20% Tris-tricine gel (Invitrogen, Grand Island, N.Y., USA). After separation, the proteins were transferred onto a nitrocellulose membrane and blocked with bovine serum albumin (BSA, 3% w/v, Sigma-Aldrich, St Louis, Mo., USA) in Tris-buffered saline (TBS) containing 0.1% Tween-20 (TBS-T) at room temperature for 2 hours or at 4° C. overnight. The membrane was incubated in a 2% BSA (w/v in TBS-T) solution, together with anti-Aβ antibody (6E10, 1:2,000, Covance, Princeton, N.J., USA), at room temperature for 4 hours or at 4° C. overnight. The membrane was washed with TBS-T (3×, 10 min), and a secondary mouse antibody (1:5,000 in 2% BSA w/v in TBS-T; Cayman Chemical Company, Ann Arbor, Mich., USA) was added thereto, followed by incubation at room temperature for 1 hour. Thermo Scientific SuperSignal West Pico Chemiluminescent Substrate (Thermo Scientific, Rockford, Ill., USA), Biosesang ECL Plus kit (Biosesang, Gyeonggi-do, Republic of Korea), or homemade ECL kit53 were used for visualization, and ChemiDoc MP Imaging System (Bio-Rad, Hercules, Calif., USA) was used for detection.

Cu(II)-Aβ = assay: Aβ aggregation inhibition, gel electrophoresis and Western blotting with anti-Aβ antibody (6E10); type: biochemical; conditions: Table 1 summary of Example 2; symbols not defined
Text: as §1, §2, §3

Metal-free Aβ = assay: as above; type: biochemical; conditions: Table 1 summary of Example 2; symbols not defined
Text: as §1, §2, §3

Zn(II)-Aβ = assay: as above; type: biochemical; conditions: Table 1 summary of Example 2; symbols not defined
Text: as §1, §2, §3

PAMPA-BBB analysis = type: in vitro ADME
Description: […] PAMPA-BBB analysis was performed by using a PAMPA Explorer kit (pION, Inc. Billerica, Mass., USA) according to the manufacture's protocol with slight modifications. […] The prepared solution was put in each well of a donor plate (200 μl, repeated 12 times). A polyvinylidene fluoride (PVDF, […]) filter membrane on an acceptor plate was coated with BBB-1 lipid formulation (5 μl, pION). The acceptor plate was placed on top of the donor plate to generate a “sandwich”. Brain sink buffer (BSB, 200 μl, pION) was added to each well of the acceptor plate. The sandwich-shaped plate was incubated for 4 hours at room temperature without stirring. UV-vis spectra of the solutions in the reference, acceptor, and donor plates were measured using a microplate reader. A PAMPA Explorer software [v. 3.8 (pION)] was used to calculate the −log Pe values for compounds. CNS±designations were assigned by comparison with compounds that were identified in previous reports.

With c1ccc(NCc2ccccn2)cc1 [Compound 1, reference compound] the “Reactive oxygen species (antioxidant effect)” value (from here on “Reactive oxygen species”) [1] was “No effect”, the “effect in cytotoxicity-inhibition test (worded result)” value [2] was “did not show excellent Aβ aggregation-inhibitory effect” and the “inhibitory effect on Aβ aggregation” value (Aβ40 and Aβ42) was “did not show inhibitory effect on Aβ aggregation under any conditions”.

In the case of Nc1ccc(NCc2ccc(F)cn2)cc1 [Compound 3, N^1-((5-fluoropyridin-2-yl)methyl)benzene-1,4-diamine], the “Reactive oxygen species” value [1] was “◯”, the “Cu(II)-Aβ (inhibitory effect on Aβ aggregation)” value (Cu(II)-Aβ) was “◯” and the “Metal-free Aβ (inhibitory effect on Aβ aggregation)” value (Metal-free Aβ) was “◯”. For the same compound, the “Zn(II)-Aβ (inhibitory effect on Aβ aggregation)” value (Zn(II)-Aβ) was “◯” and the “inhibitory effect on Aβ aggregation” value (Aβ40 and Aβ42) was “showed inhibitory effect on both two kinds of Aβ, irrespective of the kind and presence of metals”.

For CN(C)c1ccc(NCc2nccn2C)cc1 [Compound 4, N^1,N^1-dimethyl-N^4-((1-methyl-1H-imidazol-2-yl)methyl)benzene-1,4-diamine], the “Reactive oxygen species” value [1] was “◯”, the “Cu(II)-Aβ (inhibitory effect on Aβ aggregation)” value (Cu(II)-Aβ) was “◯” and the “Zn(II)-Aβ (inhibitory effect on Aβ aggregation)” value (Zn(II)-Aβ) was “◯”. For the same compound, the “inhibitory effect on Aβ aggregation” value (Aβ40 and Aβ42) was “showed inhibitory effect on Aβ with metals”.

For CN(C)c1ccc(NCCS)cc1 [Compound 5, 2-((4-(dimethylamino)phenyl)amino)ethane-1-thiol], the “Reactive oxygen species” value [1] was “◯”, the “Cu(II)-Aβ (inhibitory effect on Aβ aggregation)” value (Cu(II)-Aβ) was “◯” and the “Metal-free Aβ (inhibitory effect on Aβ aggregation)” value (Metal-free Aβ) was “◯”. For the same compound, the “Zn(II)-Aβ (inhibitory effect on Aβ aggregation)” value (Zn(II)-Aβ) was “◯” and the “inhibitory effect on Aβ aggregation” value (Aβ40 and Aβ42) was “showed inhibitory effect on both two kinds of Aβ, irrespective of the kind and presence of metals”.

With CC(=O)[C@H]1CC[C@H]2[C@@H]3CCC4=CC(=O)CC[C@]4(C)[C@H]3CC[C@]12C [Progesterone, reference compound] the PAMPA-BBB permeability class (PAMPA-BBB analysis; 50 μM, incubation 4 hrs, U.V) was “High”, the Papp at 4 h, 50 μM (PAMPA-BBB analysis; PAMPA, pH 7.4, 50 μM, incubation 4 hrs, U.V, read-out: Pe) was 46.7 ×10⁻⁶ cm/s and the “CNS± designation” value (PAMPA-BBB analysis; assigned by comparison with compounds identified in previous reports) was “(CNS+)”.
